Reference: US8361968B2 (Takeda Pharmaceutical Company Limited, priority 2002, dated 2013)
Square brackets hold non-standard residues; d marks the D form. Peptide text beside a SMILES is read from it. * marks the point of attachment. Propanoyl(3-(3-pyridyl)) = O=C(CCc1cccnc1)*; Arg(Me) = CNC(=N)NCCC[C@H](N)C(=O)O; d4Pal = N[C@H](Cc1ccncc1)C(=O)O; azaGly = NNC(=O)O

What was measured:
immature rat = assay: Induction of ovulation in immature rat using metastin derivatives; format: in vivo, rats; conditions: for number of oocytes in average per rat / dose to be administered for induction of ovulation equivalent to hCG: eCG-primed immature female rats; for dose to be administered for induction of ovulation equivalent to hCG: s.c.
Procedure: Equine chorionic gonadotropin (eCG, serotropin, Dainippon Pharmaceutical Co., Ltd.) was dissolved in saline (Otsuka Pharmaceutical Co., Ltd.) in a concentration of 100 IU/mL. Using a 1 mL tuberculin syringe with a 26-gauge needle (both by Terumo Co., Ltd.), eCG was subcutaneously injected into the dorsal area of female Wistar rats of 23 days old after birth (Charles River Japan, Inc.) in a dose of 10 IU/animal, during 9:00 to 10:00 AM. As shown below, the animal was grouped 47 to 48 hours after the eCG injection and the drugs were given to these groups, respectively.
Group B (5 rats): Compound No. 305 was dissolved in saline at 33.3 nmol/mL and the solution was subcutaneously injected into the back in a dose of 6.7 nmol/animal.
Group C (5 rats): Compound No. 305 was dissolved in saline at 10.0 nmol/mL and the solution was subcutaneously injected into the back in a dose of 2.0 nmol/animal.
Group D (5 rats): Compound No. 322 was dissolved in saline at 33.3 nmol/mL and the solution was subcutaneously injected into the back in a dose of 6.7 nmol/animal.
Group E (5 rats): Compound No. 322 was dissolved in saline at 10.0 nmol/mL and the solution was subcutaneously injected into the back in a dose of 2.0 nmol/animal.
Group F (6 rats): Saline was subcutaneously injected into the back in a dose of 200 μL/animal.
After administration of these drugs, the animal was sacrificed by decapitation after 24 to 25 hours to recover blood, bilateral oviducts and uterus. In collecting the blood, 90 μL of 10 KIU/mL aprotinin solution (Trasylol, Bayer) containing 3 mg/ml EDTA had been previously filled in a tube for recovery to prevent blood clotting. After blood recovery, the blood was thoroughly blended and the mixture was centrifuged at 2,000 G for 25 minutes. The supernatant was recovered and used as a plasma sample.
The number of oocytes was counted by referring to the method described in Eur. J. Endocrinol., 138, 594-600 (1998). That is, where retained oocytes in the oviducal ampulla were confirmed by stereomicroscopic observation of the oviduct, the ampulla was punctured with a 27-gauge syringe needle (Terumo) to retrieve the oocytes. After granulosa cells surrounding the oocytes were removed by trypsin treatment, the number of oocytes was counted. Where the retained oocytes in the oviducal ampulla were not confirmed by stereomicroscopic observation of the oviduct, a 27-gauge syringe needle with the polished tip was inserted into the tubal ostium and more than 400 μL of saline was flushed into the oviduct and uterine for rinsing. Then, the presence or absence of oocytes in the effluent was observed.

hOT7T175 = hOT7T175 (Homo sapiens, UniProt Q969F8, L364H); assay: Intracellular Ca ion level-increasing activity using FLIPR in hOT7T175/CHO; format: cell-based; design: expressed in transfected cells; host or cells: CHO/dhfr- cells, obtained from ATCC; conditions: relative, Metastin (1-54) = 1
hOT7T175, sequence (Q969F8 whole entry L364H): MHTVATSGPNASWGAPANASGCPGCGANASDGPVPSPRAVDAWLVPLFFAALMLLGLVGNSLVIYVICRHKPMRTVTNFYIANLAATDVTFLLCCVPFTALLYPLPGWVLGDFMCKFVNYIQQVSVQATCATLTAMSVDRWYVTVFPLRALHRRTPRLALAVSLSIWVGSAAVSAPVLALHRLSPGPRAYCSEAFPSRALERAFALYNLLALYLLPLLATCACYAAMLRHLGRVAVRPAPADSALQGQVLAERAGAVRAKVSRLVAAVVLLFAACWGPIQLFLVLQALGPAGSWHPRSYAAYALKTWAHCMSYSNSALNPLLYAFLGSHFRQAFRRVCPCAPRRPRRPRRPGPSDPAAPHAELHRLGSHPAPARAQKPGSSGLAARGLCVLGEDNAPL

Structure (SMILES): CNC(=N)NCCC[C@H](NC(=O)[C@H](CC(C)C)NC(=O)NNC(=O)[C@H](Cc1ccccc1)NC(=O)[C@H](CO)NC(=O)[C@H](CC(N)=O)NC(=O)CCc1cccnc1)C(=O)N[C@@H](Cc1ccccc1)C(N)=O [Compound No. 322, 3-Pyridylpropionyl-Asn-Ser-Phe-AzaGly-Leu-Arg(Me)-Phe-NH2] ({Propanoyl(3-(3-pyridyl))}-NSF[azaGly]L[Arg(Me)]F-NH2)
- rats ovulated (immature rat; 2.0 nmol/animal s.c.): 3 out of 5
- level of estradiol contained in plasma (immature rat; 2.0 nmol/animal s.c. (FIG. 21)): tendency to show a higher level in rats with no ovulation induction
- level of progesterone in blood (immature rat; 2.0 nmol/animal s.c. (FIG. 22)): very low level
- level of estradiol contained in plasma (immature rat; 6.7 nmol/animal s.c. (FIG. 21)): no difference
- level of progesterone in blood (immature rat; 6.7 nmol/animal s.c. (FIG. 22)): less than a half of the level in Group A
- number of oocytes in average per rat (immature rat; 2.0 nmol/animal s.c.): 11.6 oocytes
- number of oocytes in average per rat (immature rat; 6.7 nmol/animal s.c.): 29.6 oocytes
- dose to be administered for induction of ovulation equivalent to hCG (immature rat): at least 6.7 nmol/animal
- Specific Activity (intracellular Ca ion level-increasing activity) (hOT7T175): 1

Structure (SMILES): CNC(=N)NCCC[C@H](NC(=O)[C@H](CC(C)C)NC(=O)NNC(=O)[C@H](Cc1ccccc1)NC(=O)[C@H](CO)NC(=O)[C@H](CC(N)=O)NC(=O)[C@@H](Cc1ccncc1)NC(=O)[C@H](N)Cc1ccc(O)cc1)C(=O)N[C@@H](Cc1ccccc1)C(N)=O [Compound No. 305, D-Tyr-D-Pya(4)-Asn-Ser-Phe-AzaGly-Leu-Arg(Me)-Phe-NH2] (H-[dY][d4Pal]NSF[azaGly]L[Arg(Me)]F-NH2)
- level of estradiol contained in plasma (immature rat; 2.0 nmol/animal s.c. (FIG. 21)): no difference
- level of progesterone in blood (immature rat; 2.0 nmol/animal s.c. (FIG. 22)): less than a half of the level in Group A
- level of estradiol contained in plasma (immature rat; 6.7 nmol/animal s.c. (FIG. 21)): no difference
- level of progesterone in blood (immature rat; 6.7 nmol/animal s.c. (FIG. 22)): less than a half of the level in Group A
- number of oocytes in average per rat (immature rat; 2.0 nmol/animal s.c.): 29.4 oocytes
- number of oocytes in average per rat (immature rat; 6.7 nmol/animal s.c.): 32.6 oocytes
- dose to be administered for induction of ovulation equivalent to hCG (immature rat): at least 2.0 nmol/animal
- Specific Activity (intracellular Ca ion level-increasing activity) (hOT7T175): 5
